# “Also recorded” adds a separate entry of the source.
# How the values were obtained:
# [1] = tested on: peptide-pulsed T2 cells; assay: IFN-gamma ELISA on expanded CTL lines, HLA-A02 peptides; assay type: cell-based, human; conditions: expanded cells of positive wells, FIG. 3A-D, 3F
# Description: CTLs were expanded in culture using a similar method as reported by Riddell, et al. (Walter et al., N Engl J Med 333(16): 1038-44, 1995; Riddell et al., Nat Med 2(2): 216-23, 1996 February). A total of 5×10^4 CTLs were resuspended in 25 ml of AIM-V/5% AS with 2 kinds of human B-lymphoblastoid cell lines, inactivated with MMC, in the presence of 40 ng/ml of anti-CD3 monoclonal antibody (Pharmingen). One day after initiating the cultures, 120 IU/ml of IL-2 were added to the cultures. The cultures were fed with fresh AIM-V/5% AS containing 30 IU/ml of IL-2 on days 5, 8 and 11.
# (§1) To examine the specific CTL activity, IFN-gamma ELISPOT assay and IFN-gamma ELISA were performed. Briefly, peptide-pulsed A24-LCL, T2 cell (1×10^4/well) or the cells endogenously expressing Foxp3 and HLA molecule was prepared as a stimulator cells. Cultured CTL lines in 48 wells were used as a responder cells. IFN-gamma ELISPOT assay and IFN-gamma ELISA were performed under manufacture procedure.
# These cells in the positive wells were expanded and performed IFN-gamma ELISA assay.
# [2] = tested on: 293T that transfected both Foxp3 and HLA-A02; assay: Specific CTL activity against target cells expressing Foxp3 and HLA-A02; assay type: cell-based, human
# Description: as §1
# (§2) The established CTL clone raised against these peptides were examined for their ability to recognize the target cells endogenously expressing Foxp3 and HLA-A*24 or 02. Specific CTL activity against 293T transfected both full length of Foxp3 gene and HLA-A*24 or 02 molecule, which is specific model for the target cells endogenously express Foxp3 and HLA-A*24 or 02, was tested using the CTL lines raised by Foxp3-A02-9-390 (SEQ ID NO: 15) and Foxp3-A02-9-252 (SEQ ID NO: 17) as effector cells. […] Furthermore, these peptides were epitope peptides, which can utilize vaccine targeting Foxp3 expressed T-regs.
# [3] = tested on: BALB/c mice; assay: Immunogenicity of epitope peptides in BALB/c mice (IFN-gamma ELISPOT on splenocytes); assay type: in vivo
# Description: IFA-conjugated peptide or IFA only were injected s.c. into BALB/c mice on day 0 and 7. On day 14, splenocytes of vaccinated mice were harvested and used as responder cells. 1×10^4 RLmale1 cells pulsed corresponding peptide (solid square), or no peptide (open square) were used as stimulator cells for IFN-gamma ELISPOT assay. Vaccination using Foxp3-252_h (A) and Foxp3-252_m (B) were performed into five mice (M1-M5) and IFA without any peptide injection were performed into three mice (N1-N3) as control in each assay.
# For priming the peptide-specific CTLs, immunization was given using 100 mcl vaccine mixture, which contains 50 mcl HLA-A24 restricted peptide and 50 mcl IFA per mouse. The vaccine was injected s.c. into the right flank of mice for the first immunization on day 0 and in the left flank for the second on the day 7. On day 14, splenocytes from vaccinated mice were used as the responder cells, and RLmale1 cells pulsed with or without peptides were used as the stimulator cells for IFN-gamma ELISPOT assay.
# To evaluate the immunogenicity of Foxp3-9-252 peptide for BALB/c mice, immunization with human Foxp3-9-252 peptide (Foxp3-252_h; KLSAMQAHL)(SEQ ID NO: 17) and mouse Foxp3-9-252 peptide (Foxp3-252_m; KLGAMQAHL) (SEQ ID NO: 89) were performed, respectively. After second injection of peptide, peptide specific CTL activity was determined by IFN-gamma ELISPOT assay (FIG. 5).
# [4] = tested on: peptide-pulsed A24LCL cells or T2 cells; assay: In vitro CTL induction by peptide-loaded dendritic cells (summary statements); assay type: cell-based, human
# Description: Confirmation of CTL inducibility can be accomplished by inducing antigen-presenting cells carrying human MHC antigens (for example, B-lymphocytes, macrophages, and dendritic cells), or more specifically dendritic cells derived from human peripheral blood mononuclear leukocytes, and after stimulation with the peptides, mixing with CD8-positive cells, and then measuring the IFN-gamma produced and released by CTL against the target cells. As the reaction system, transgenic animals that have been produced to express a human HLA antigen (for example, those described in BenMohamed L, Krishnan R, Longmate J, Auge C, Low L, Primus J, Diamond D J, Hum Immunol 61(8): 764-79, 2000 August, Related Articles, Books, Linkout Induction of CTL response by a minimal epitope vaccine in HLA A*0201/DR1 transgenic mice: dependence on HLA class II restricted T(H) response) can be used. For example, the target cells can be radiolabeled with ^51Cr and such, and cytotoxic activity can be calculated from radioactivity released from the target cells. Alternatively, it can be examined by measuring IFN-gamma produced and released by CTL in the presence of antigen-presenting cells that carry immobilized peptides, and visualizing the inhibition zone on the media using anti-IFN-gamma monoclonal antibodies.
# Monocyte-derived dendritic cells (DCs) were used as antigen-presenting cells (APCs) to induce CTL responses against peptides presented on HLA. DCs were generated in vitro as described elsewhere (Horiguchi S. et al. Cancer Res. 59:2950-6). Specifically, peripheral blood mononuclear cells (PBMCs) isolated from normal volunteer (HLA-A*2402 and/or HLA-A*0201) with Ficoll-Plaque (Pharmacia) solution were separated by adherence to plastic tissue culture dish (Becton Dickinson) so as to enrich them for the monocyte fraction. The monocyte-enriched population was cultured in the presence of 1000 U/ml of GM-CSF (R&D System) and 1000 U/ml of IL-4 (R&D System) in AIM-V medium (Invitrogen) containing 2% heat-inactivated autologous serum (AS). After 7 days in the culture, the cytokine-generated DCs were pulsed with 20 mcg/ml of the synthesized peptides in the presence of 3 mcg/ml of beta2-microglobulin for 4 hrs at 20 degrees C. in AIM-V medium. These peptide-pulsed DCs were then inactivated with mitomycin C (MMC) (30 mcg/ml for 30 mins) and mixed at a 1:20 ratio with autologous CD8+ T cells, obtained by positive selection with CD8 Positive Isolation Kit (Dynal). These cultures were set up in 48-well plates (Corning); each well contained 1.5×10^4 peptide-pulsed DCs, 3×10^5 CD8+ T cells and 10 ng/ml of IL-7 (R&D System) in 0.5 ml of AIM-V/2% AS. Three days later, these cultures were supplemented with IL-2 (CHIRON) to a final concentration of 20 IU/ml. On day 7 and 14, the T cells were further restimulated with the peptide-pulsed autologous DCs. The DCs were prepared each time through the same procedure described above. CTL activity was tested against peptide-pulsed A24LCL cells or T2 cells after the 3rd round of peptide stimulation on day 21.
# as §1
# [5] = tested on: 293T that transfected both Foxp3 and HLA-A24; assay: Specific CTL activity against target cells expressing Foxp3 and HLA-A24; assay type: cell-based, human
# Description: as §1, §2
sequence,measurement,setting,value
KLSAMQAHL (peptide vaccine) [SEQ ID NO 17],"IFN-gamma production of CTL lines stimulated with peptide, compared with the control",[1],potent IFN-gamma production
same,specific CTL activity of CTL lines raised by peptide,"[2]; against 293T transfected with both Foxp3 and HLA-A02, FIG. 4A/4B",high specific CTL activity
same,specific CTL activity against controls,[2]; controls of FIG. 4A/4B,did not show significant specific CTL activity
same,mice with peptide specific CTL response,"[3]; IFA-conjugated peptide s.c. day 0 and 7, splenocytes day 14, RLmale1 stimulator cells, FIG. 5",three of five
same,induction of epitope specific CTLs in vivo,"[3]; vaccination of BALB/c mice, discussion, listed as hFoxp3-252",could induce epitope specific CTLs in vivo; also recorded: superior to mFoxp3-252 peptide
same,specific CTL activity,[4]; against peptide pulsed target cells,significant and specific CTL activity
same,establishment of CTLs,[4]; in vitro stimulation of T-cells by DCs loaded with peptide,CTLs were successfully established
same,specific CTL activity of CTL lines raised by peptide,"[5]; against 293T transfected with both Foxp3 and HLA-A24, FIG. 4C",high specific CTL activity
same,specific CTL activity against controls,[5]; controls of FIG. 4C,did not show significant specific CTL activity
